Source: US20050130287A1, “Purifying process of soluble proteins of the l.obliqua bristles through prothrombin activation: process for a partial determination of the amino acids sequence of the prothrombin activator; process for determining the prothrombin activation of fraction II, n-terminal and internal fragments sequences” (priority 2002, published 2005)

Molecular target: T1, Lopap (Lonomia obliqua, UniProt Q5ECE3)
T1 construct: from tissue; host or cells: Lonomia obliqua caterpillar bristles
T1 sequence (Q5ECE3 17-201): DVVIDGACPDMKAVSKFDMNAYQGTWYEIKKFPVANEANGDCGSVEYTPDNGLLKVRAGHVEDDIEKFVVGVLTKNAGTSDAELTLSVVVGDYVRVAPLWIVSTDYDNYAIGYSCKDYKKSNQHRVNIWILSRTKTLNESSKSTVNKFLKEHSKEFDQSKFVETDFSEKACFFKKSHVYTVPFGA
Assay: Lopap inhibition by PMSF or E-64 (S-2238)
Type: biochemical

In the case of `CC(C)C[C@H](NC(=O)[C@H]1O[C@@H]1C(=O)O)C(=O)NCCCCN=C(N)N` (relative stereo) [E-64, trans-epoxysuccinil-L-leucilamide-(4-guanidine-butane)], the “effect on Lopap activity” value (3,2 mM E-64, Lopap 75 nM) is reported as “did not affected it”.
For `O=S(=O)(F)Cc1ccccc1` [PMSF, phenylmethylsulphonil fluoride], the “effect on Lopap activity” value (10 mM PMSF, Lopap 75 nM) was “completely annulled”.
